Laboratory results: EPA's CvTdb concentration-time database (doi:10.1093/toxsci/kfy020)

Experiments:
Test in all cases: concentration in plasma after dosing
[1] = system: rat
[2] = system: rat; conditions: dosed: Flufenacet, 1.0 mg/kg, iv, male, Sprague-Dawley
[3] = system: rat; conditions: dosed: Flufenacet, 5.2 mg/kg, oral, male, Sprague-Dawley
[4] = system: rat; conditions: dosed: Flufenacet, 5.2 mg/kg, oral, male, Sprague-Dawley; remark: listed apart in the source
[5] = system: rat; conditions: dosed: Flufenacet, 1.0 mg/kg, iv, male, Sprague-Dawley; remark: listed apart in the source
[6] = system: rat; conditions: dosed: Diazinon-o-analog, 5.02 mg/kg, oral, male, Sprague-Dawley
[7] = system: rat; conditions: dosed: Diazinon-o-analog, 5.02 mg/kg, oral, male, Sprague-Dawley; remark: listed apart in the source
[8] = system: rat; conditions: dosed: Diazinon-o-analog, 1.02 mg/kg, iv, male, Sprague-Dawley
[9] = system: rat; conditions: dosed: Diazinon-o-analog, 1.02 mg/kg, iv, male, Sprague-Dawley; remark: listed apart in the source

O=C1NC(=O)C(c2ccccc2)(c2ccccc2)N1 [Phenytoin]
[1], dosed: Phenytoin, 25.0000000000 mg/kg, iv, duration: 1 min, male, Sprague-Dawley
Conditions	concentration in plasma [ng/mL]
0.25 h	21500
0.5 h	15800
0.75 h	12100
1 h	8790
1 min	461000
1.5 h	4630
2 h	2480
3 h	1500
4 h	831

[1], dosed: Phenytoin, male
Conditions	concentration in plasma [ng/mL]
0.25 h, 25.0000000000 mg/kg, oral, Sprague-Dawley	4120
0.25 h, 40.0000000000 mg/kg, iv, Wistar-derived	26900
0.5 h, 25.0000000000 mg/kg, oral, Sprague-Dawley	3370
0.5 h, 40.0000000000 mg/kg, iv, Wistar-derived	19300
0.75 h, 25.0000000000 mg/kg, oral, Sprague-Dawley	2620
1 h, 25.0000000000 mg/kg, oral, Sprague-Dawley	1820
1 h, 40.0000000000 mg/kg, iv, Wistar-derived	14200
1.5 h, 25.0000000000 mg/kg, oral, Sprague-Dawley	1200
1.5 h, 40.0000000000 mg/kg, iv, Wistar-derived	11700
2 h, 25.0000000000 mg/kg, oral, Sprague-Dawley	885
2 h, 40.0000000000 mg/kg, iv, Wistar-derived	8970
2.5 h, 40.0000000000 mg/kg, iv, Wistar-derived	7190
3 h, 25.0000000000 mg/kg, oral, Sprague-Dawley	1170
3 h, 40.0000000000 mg/kg, iv, Wistar-derived	4790
3.5 h, 40.0000000000 mg/kg, iv, Wistar-derived	3020
4 h, 25.0000000000 mg/kg, oral, Sprague-Dawley	1120
4 h, 40.0000000000 mg/kg, iv, Wistar-derived	2270
5 min, 40.0000000000 mg/kg, iv, Wistar-derived	54300
6 h, 25.0000000000 mg/kg, oral, Sprague-Dawley	771
8 h, 25.0000000000 mg/kg, oral, Sprague-Dawley	759
10 h, 25.0000000000 mg/kg, oral, Sprague-Dawley	865
10 min, 40.0000000000 mg/kg, iv, Wistar-derived	33800
12 h, 25.0000000000 mg/kg, oral, Sprague-Dawley	495
20 min, 40.0000000000 mg/kg, iv, Wistar-derived	23200
40 min, 40.0000000000 mg/kg, iv, Wistar-derived	16800

COC(=O)Nc1nc2ccccc2[nH]1 [Carbendazim]
[1], dosed: Carbendazim, 1000.0000000000 mg/kg, oral, male, Sprague-Dawley
Conditions	concentration in plasma [ng/mL]
0.25 h	10000
0.5 h	11600
1 h	14700
2 h	20200
4 h	14100
8 h	4590
20 h	49.4

CC(C)N(C(=O)COc1nnc(C(F)(F)F)s1)c1ccc(F)cc1 [Flufenacet]
concentration in plasma
Conditions	[2]	[3]	[4]	[5]
0.167 h	52.4 ng/mL	–	–	80600 pg/mL
0.25 h	–	2160 pg/mL	708 pg/mL	–
0.5 h	8.65 ng/mL	1320 pg/mL	410 pg/mL	13600 pg/mL
1 h	4.31 ng/mL	462 pg/mL	274 pg/mL	1820 pg/mL
2 h	3.42 ng/mL	220 pg/mL	256 pg/mL	896 pg/mL
4 h	2.88 ng/mL	135 pg/mL	198 pg/mL	328 pg/mL
5 min	128 ng/mL	–	–	195000 pg/mL
8 h	0.0986 ng/mL	116 pg/mL	150 pg/mL	70.9 pg/mL
24 h	0.044 ng/mL	17.9 pg/mL	24.9 pg/mL	59.5 pg/mL
48 h	0.026 ng/mL	12.8 pg/mL	17 pg/mL	26.4 pg/mL
72 h	0.0121 ng/mL	20.8 pg/mL	22.4 pg/mL	35.2 pg/mL

[1], dosed: Flufenacet, male, Sprague-Dawley
Conditions	concentration in plasma [ng/mL]
0.167 h, 1.0 mg/kg, iv	20.4
0.25 h, 5.2 mg/kg, oral	0.81
0.5 h, 1.0 mg/kg, iv	4.05
0.5 h, 5.2 mg/kg, oral	0.401
1 h, 1.0 mg/kg, iv	3.72
1 h, 5.2 mg/kg, oral	0.451
2 h, 1.0 mg/kg, iv	1.81
2 h, 5.2 mg/kg, oral	0.188
4 h, 1.0 mg/kg, iv	2.03
4 h, 5.2 mg/kg, oral	0.146
5 min, 1.0 mg/kg, iv	48.6
8 h, 1.0 mg/kg, iv	2.1
8 h, 5.2 mg/kg, oral	0.0824
24 h, 1.0 mg/kg, iv	0.0352
24 h, 5.2 mg/kg, oral	0.0158
48 h, 1.0 mg/kg, iv	0.0229
48 h, 5.2 mg/kg, oral	0.0322
72 h, 1.0 mg/kg, iv	0.0508
72 h, 5.2 mg/kg, oral	0.0214

COc1ccc([C@@H]2Sc3ccccc3N(CCN(C)C)C(=O)[C@@H]2OC(C)=O)cc1 [Diltiazem]
concentration in plasma [ng/mL], [1], dosed: Diltiazem, 20.0000000000 mg/kg, male, Sprague-Dawley
Conditions	0.16 h	0.25 h	1 h	1.5 h	2 h	3 h	4 h	6 h	8 h	10 h
iv	7870	5050	2530	1510	956	636	202	69.3	78	22.5
oral	1220	488	248	189	271	160	52.8	19.4	–	–

Cc1ncc2n1-c1ccc(Cl)cc1C(c1ccccc1F)=NC2 [Midazolam]
concentration in plasma [ng/mL], [1], dosed: Midazolam, male, Sprague-Dawley
Conditions	0.25 h	0.5 h	1 h	1.5 h	2 h	3 h	4 h	5 min	10 min
5.0000000000 mg/kg, iv	964	570	255	125	62.5	16.1	1	2210	1080
15.0000000000 mg/kg, oral	134	163	123	113	88.5	37.7	19.8	12.9	71.1

COc1ccccc1Oc1c(NS(=O)(=O)c2ccc(C(C)(C)C)cc2)nc(-c2ncccn2)nc1OCCO [Bosentan]
concentration in plasma [ng/mL], [1], dosed: Bosentan, male, Wistar
Conditions	0.5 h	1 h	2 h	2 min	3 h	4 h	6 h	8 h	10 min	20 min
1.0000000000 mg/kg, iv	168	128	78.9	1950	61.3	38.3	18.3	10.5	323	212
10.0000000000 mg/kg, oral	–	622	608	–	–	360	157	60	–	–

COCCc1ccc(OC[C@H](O)CNC(C)C)cc1 [R-Metoprolol]
[1], dosed: Metoprolol, 15.0000000000 mg/kg, oral, male, Wistar
Conditions	concentration in plasma [ng/mL]
1 h	24.4
1.5 h	10.1
2 h	12.2
2 min	199
2.5 h	4.49
3 h	2.07
4 h	1.05
4 min	380
8 min	84.6
10 min	108
20 min	79.3
40 min	53.9
50 min	35.4

CCCC(CCC)C(=O)O [Valproic acid]
concentration in plasma [ng/mL], [1], dosed: Valproic acid, iv, Wistar
Conditions	10.0000000000 mg/kg	50.0000000000 mg/kg	100.0000000000 mg/kg
0.017 h	69900	290000	511000
0.05 h	49300	256000	427000
0.083 h	36300	228000	369000
0.167 h	32000	199000	329000
0.25 h	25700	168000	290000
0.5 h	14700	120000	250000
0.75 h	9080	72500	218000
1 h	5100	42900	171000
2 h	1200	5190	43700
3 h	494	2040	4030
4 h	298	905	1600

concentration in plasma [ng/mL], [1], dosed: Valproic acid, oral, female, Sprague-Dawley
Conditions	0.25 h	0.5 h	0.75 h	1 h	2 h	4 h
200.0000000000 mg/kg	269000	333000	246000	182000	95600	23000
600.0000000000 mg/kg	558000	841000	755000	691000	643000	294000

CCOc1ccc(NC(C)=O)cc1 [Phenacetin]
[1], dosed: Phenacetin, 23.0000000000 mg/kg, iv, male, Sprague-Dawley
Conditions	concentration in plasma [ng/mL]
0.25 h	18900
0.5 h	16100
0.75 h	12200
1 h	9020
1.5 h	6630
2 h	4320
2.5 min	26300
5 min	24300
10 min	21800

CCOP(=O)(OCC)Oc1cc(C)nc(C(C)C)n1 [Diazinon-o-analog]
concentration in plasma
Conditions	[6]	[7]	[8]	[9]
0.167 h	–	–	374 ng/mL	0.337 µg/mL
0.25 h	1.22 µg/mL	1.77 µg/mL	–	–
0.5 h	1.07 µg/mL	0.331 µg/mL	1340 ng/mL	0.349 µg/mL
1 h	1.06 µg/mL	1.04 µg/mL	413 ng/mL	0.441 µg/mL
2 h	0.948 µg/mL	0.786 µg/mL	286 ng/mL	0.294 µg/mL
4 h	0.784 µg/mL	0.745 µg/mL	188 ng/mL	0.155 µg/mL
5 min	–	–	247 ng/mL	0.213 µg/mL
8 h	0.291 µg/mL	0.316 µg/mL	60.9 ng/mL	0.0595 µg/mL
24 h	0.00431 µg/mL	0.00505 µg/mL	0.552 ng/mL	0.000498 µg/mL
48 h	0.000116 µg/mL	0.000193 µg/mL	0.0484 ng/mL	–
72 h	0.00121 µg/mL	0.00373 µg/mL	–	0.000247 µg/mL

[1], dosed: Diazinon-o-analog, male, Sprague-Dawley
Conditions	concentration in plasma [ng/mL]
0.167 h, 1.02 mg/kg, iv	596
0.25 h, 5.02 mg/kg, oral	916
0.5 h, 1.02 mg/kg, iv	597
0.5 h, 5.02 mg/kg, oral	846
1 h, 1.02 mg/kg, iv	356
1 h, 5.02 mg/kg, oral	1180
2 h, 1.02 mg/kg, iv	271
2 h, 5.02 mg/kg, oral	1140
4 h, 1.02 mg/kg, iv	174
4 h, 5.02 mg/kg, oral	715
5 min, 1.02 mg/kg, iv	564
8 h, 1.02 mg/kg, iv	57.9
8 h, 5.02 mg/kg, oral	298
24 h, 1.02 mg/kg, iv	1.14
24 h, 5.02 mg/kg, oral	2.63
48 h, 5.02 mg/kg, oral	1.84
72 h, 1.02 mg/kg, iv	0.481
72 h, 5.02 mg/kg, oral	0.239
